Results published in patent publication US10150760B2, “Compounds for use in preparing heterocyclic triazole agonists of the APJ receptor” (AMGEN INC., priority 2016, dated 2018).

Target: human APJ receptor (Homo sapiens (Human), UniProt P35414)
Assay: [35S]GTPγS binding assay on membranes from CHO cells stably expressing human APJ receptor
Format: biochemical
Details: read-out: Activity hAPJ SPA EC50 IP
Summary of the method: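 Agonist-driven [35S]GTPγS (0.2 nM) binding was measured over 90 min at room temperature on human APJ-expressing CHO membranes with bead capture, in buffer containing 3 μM GDP, 200 mM NaCl and 5 mM MgCl2 (pH 7.5). Excess unlabelled GTPγS (100 μM) gave nonspecific signal; EC50 from non-linear fits.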

Sequence of human APJ receptor (P35414 whole entry): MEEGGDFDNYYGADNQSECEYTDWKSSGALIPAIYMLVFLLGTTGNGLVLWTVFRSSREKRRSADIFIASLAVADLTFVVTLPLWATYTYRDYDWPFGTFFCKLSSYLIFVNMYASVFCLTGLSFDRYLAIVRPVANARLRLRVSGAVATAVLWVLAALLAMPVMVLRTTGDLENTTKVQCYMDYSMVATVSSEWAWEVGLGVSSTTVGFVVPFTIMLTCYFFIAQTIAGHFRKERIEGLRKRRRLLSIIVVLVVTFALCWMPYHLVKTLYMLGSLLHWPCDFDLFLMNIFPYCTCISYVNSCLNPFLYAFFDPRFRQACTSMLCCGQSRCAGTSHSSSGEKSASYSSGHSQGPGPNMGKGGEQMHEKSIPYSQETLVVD

EC50 | Substance
13 nM | (2S,3R)-3-(5-chloropyrimidin-2-yl)-N-(4-(4,6-dimethoxypyrimidin-5-yl)-5-((R)-5,5-dimethyltetrahydrofuran-3-yl)-4H-1,2,4-triazol-3-yl)butane-2-sulfonamide or (2S,3R)-3-(5-chloropyrimidin-2-yl)-N-(4-(4,6-dimethoxypyrimidin-5-yl)-5-((S)-5,5-dimethyltetrahydrofuran-3-yl)-4H-1,2,4-triazol-3-yl)butane-2-sulfonamide [Example 318.0]
100 nM | (2S,3R)-N-(4-(1,3-dimethoxy-2-propanyl)-5-((2R,5R)-5-methyltetrahydro-2-furanyl)-4H-1,2,4-triazol-3-yl)-3-(5-fluoro-2-pyrimidinyl)-2-butanesulfonamide or (2S,3R)-N-(4-(1,3-dimethoxy-2-propanyl)-5-((2S,5S)-5-methyltetrahydro-2-furanyl)-4H-1,2,4-triazol-3-yl)-3-(5-fluoro-2-pyrimidinyl)-2-butanesulfonamide [Example 368.0]
21 nM | (2S,3R)-N-(4-(1,3-dimethoxy-2-propanyl)-5-((2R,5R)-5-methyltetrahydro-2-furanyl)-4H-1,2,4-triazol-3-yl)-3-(5-fluoro-2-pyrimidinyl)-2-butanesulfonamide or (2S,3R)-N-(4-(1,3-dimethoxy-2-propanyl)-5-((2S,5S)-5-methyltetrahydro-2-furanyl)-4H-1,2,4-triazol-3-yl)-3-(5-fluoro-2-pyrimidinyl)-2-butanesulfonamide [Example 369.0]
120 nM | (2S,3R)-N-(4-(1,3-dimethoxy-2-propanyl)-5-((2R,5R)-5-methyltetrahydro-2-furanyl)-4H-1,2,4-triazol-3-yl)-3-(5-methoxy-2-pyrazinyl)-2-butanesulfonamide or (2S,3R)-N-(4-(1,3-dimethoxy-2-propanyl)-5-((2S,5S)-5-methyltetrahydro-2-furanyl)-4H-1,2,4-triazol-3-yl)-3-(5-methoxy-2-pyrazinyl)-2-butanesulfonamide [Example 376.0]
24 nM | (2S,3R)-N-(4-(1,3-dimethoxy-2-propanyl)-5-((2R,5R)-5-methyltetrahydro-2-furanyl)-4H-1,2,4-triazol-3-yl)-3-(5-methoxy-2-pyrazinyl)-2-butanesulfonamide or (2S,3R)-N-(4-(1,3-dimethoxy-2-propanyl)-5-((2S,5S)-5-methyltetrahydro-2-furanyl)-4H-1,2,4-triazol-3-yl)-3-(5-methoxy-2-pyrazinyl)-2-butanesulfonamide [Example 377.0]
620 nM | (2S,3R)-N-(4-(1,3-dimethoxy-2-propanyl)-5-((2R,5R)-5-methyltetrahydro-2-furanyl)-4H-1,2,4-triazol-3-yl)-3-(5-methoxy-2-pyrimidinyl)-2-butanesulfonamide or (2S,3R)-N-(4-(1,3-dimethoxy-2-propanyl)-5-((2S,5S)-5-methyltetrahydro-2-furanyl)-4H-1,2,4-triazol-3-yl)-3-(5-methoxy-2-pyrimidinyl)-2-butanesulfonamide [Example 370.0]
15 nM | (2S,3R)-N-(4-(1,3-dimethoxy-2-propanyl)-5-((2R,5R)-5-methyltetrahydro-2-furanyl)-4H-1,2,4-triazol-3-yl)-3-(5-methoxy-2-pyrimidinyl)-2-butanesulfonamide or (2S,3R)-N-(4-(1,3-dimethoxy-2-propanyl)-5-((2S,5S)-5-methyltetrahydro-2-furanyl)-4H-1,2,4-triazol-3-yl)-3-(5-methoxy-2-pyrimidinyl)-2-butanesulfonamide [Example 371.0]
15 nM | (2S,3R)-N-(4-(2,6-bis((trideutero)methyloxy)phenyl)-5-((3R)-tetrahydro-3-furanyl)-4H-1,2,4-triazol-3-yl)-3-(5-chloro-2-pyrimidinyl)-2-butanesulfonamide or (2S,3R)-N-(4-(2,6-bis((trideutero)methyloxy)phenyl)-5-((3S)-tetrahydro-3-furanyl)-4H-1,2,4-triazol-3-yl)-3-(5-chloro-2-pyrimidinyl)-2-butanesulfonamide [Example 391.0]
25 nM | (2S,3R)-N-(4-(2,6-bis((tridutero)methyloxy)phenyl)-5-((3R)-tetrahydro-3-furanyl)-4H-1,2,4-triazol-3-yl)-3-(5-chloro-2-pyrimidinyl)-2-butanesulfonamide or (2S,3R)-N-(4-(2,6-bis((trideutero)methyloxy)phenyl)-5-((3S)-tetrahydro-3-furanyl)-4H-1,2,4-triazol-3-yl)-3-(5-chloro-2-pyrimidinyl)-2-butanesulfonamide [Example 392.0]
160 nM | (2S,3R)-N-(4-(2,6-difluorophenyl)-5-((3R)-tetrahydro-3-furanyl)-4H-1,2,4-triazol-3-yl)-3-(5-methyl-2-pyrimidinyl)-2-butanesulfonamide or (2S,3R)-N-(4-(2,6-difluorophenyl)-5-((3S)-tetrahydro-3-furanyl)-4H-1,2,4-triazol-3-yl)-3-(5-methyl-2-pyrimidinyl)-2-butanesulfonamide [Example 20.0]
110 nM | (2S,3R)-N-(4-(2,6-difluorophenyl)-5-((3R)-tetrahydro-3-furanyl)-4H-1,2,4-triazol-3-yl)-3-(5-methyl-2-pyrimidinyl)-2-butanesulfonamide or (2S,3R)-N-(4-(2,6-difluorophenyl)-5-((3S)-tetrahydro-3-furanyl)-4H-1,2,4-triazol-3-yl)-3-(5-methyl-2-pyrimidinyl)-2-butanesulfonamide [Example 21.0]
260 nM | (2S,3R)-N-(4-(2,6-difluorophenyl)-5-((3S)-tetrahydro-2H-pyran-3-yl)-4H-1,2,4-triazol-3-yl)-3-(5-methyl-2-pyrimidinyl)-2-butanesulfonamide or (2S,3R)-N-(4-(2,6-difluorophenyl)-5-((3R)-tetrahydro-2H-pyran-3-yl)-4H-1,2,4-triazol-3-yl)-3-(5-methyl-2-pyrimidinyl)-2-butanesulfonamide [Example 22.0]
110 nM | (2S,3R)-N-(4-(2,6-difluorophenyl)-5-((3S)-tetrahydro-2H-pyran-3-yl)-4H-1,2,4-triazol-3-yl)-3-(5-methyl-2-pyrimidinyl)-2-butanesulfonamide or (2S,3R)-N-(4-(2,6-difluorophenyl)-5-((3R)-tetrahydro-2H-pyran-3-yl)-4H-1,2,4-triazol-3-yl)-3-(5-methyl-2-pyrimidinyl)-2-butanesulfonamide [Example 23.0]
1380 nM | (2S,3R)-N-(4-(2,6-dimethoxyphenyl)-5-((R)-1,1-dioxidotetahydrothiophen-3-yl)-4H-1,2,4-triazol-3-yl)-3-(5-methylpyrimidin-2-yl)butane-2-sulfonamide or (2S,3R)-N-(4-(2,6-dimethoxyphenyl)-5-((S)-1,1-dioxidotetrahydrothiophen-3-yl)-4H-1,2,4-triazol-3-yl)-3-(5-methylpyrimidin-2-yl)butane-2-sulfonamide [Example 184.0]
1060 nM | (2S,3R)-N-(4-(2,6-dimethoxyphenyl)-5-((R)-1,1-dioxidotetrahydrothiophen-3-yl)-4H-1,2,4-triazol-3-yl)-3-(5-methylpyrimidin-2-yl)butane-2-sulfonamide or (2S,3R)-N-(4-(2,6-dimethoxyphenyl)-5-((S)-1,1-dioxidotetrahydrothiophen-3-yl)-4H-1,2,4-triazol-3-yl)-3-(5-methylpyrimidin-2-yl)butane-2-sulfonamide [Example 183.0]
4.8 nM | (2S,3R)-N-(4-(2,6-dimethoxyphenyl)-5-((R)-1,4-dioxan-2-yl)-4H-1,2,4-triazol-3-yl)-3-(5-methoxypyrazin-2-yl)butane-2-sulfonamide or (2S,3R)-N-(4-(2,6-dimethoxyphenyl)-5-((S)-1,4-dioxan-2-yl)-4H-1,2,4-triazol-3-yl)-3-(5-methoxypyrazin-2-yl)butane-2-sulfonamide [Example 207.0]
20 nM | (2S,3R)-N-(4-(2,6-dimethoxyphenyl)-5-((R)-1,4-dioxan-2-yl)-4H-1,2,4-triazol-3-yl)-3-(5-methoxypyrazin-2-yl)butane-2-sulfonamide or (2S,3R)-N-(4-(2,6-dimethoxyphenyl)-5-((S)-1,4-dioxan-2-yl)-4H-1,2,4-triazol-3-yl)-3-(5-methoxypyrazin-2-yl)butane-2-sulfonamide [Example 208.0]
19 nM | (2S,3R)-N-(4-(2,6-dimethoxyphenyl)-5-((R)-1,4-dioxan-2-yl)-4H-1,2,4-triazol-3-yl)-3-(5-methylpyrimidin-2-yl)butane-2-sulfonamide or (2S,3R)-N-(4-(2,6-dimethoxyphenyl)-5-((S)-1,4-dioxan-2-yl)-4H-1,2,4-triazol-3-yl)-3-(5-methylpyrimidin-2-yl)butane-2-sulfonamide [Example 205.0]
12 nM | (2S,3R)-N-(4-(2,6-dimethoxyphenyl)-5-((S)-tetrahydrothiophen-2-yl)-4H-1,2,4-triazol-3-yl)-3-(5-methylpyrimidin-2-yl)butane-2-sulfonamide or (2S,3R)-N-(4-(2,6-dimethoxyphenyl)-5-((R)-tetrahydrothiophen-2-yl)-4H-1,2,4-triazol-3-yl)-3-(5-methylpyrimidin-2-yl)butane-2-sulfonamide [Example 223.0]
1.5 nM | (2S,3R)-N-(4-(2,6-dimethoxyphenyl)-5-((S)-tetrahydrothiophen-2-yl)-4H-1,2,4-triazol-3-yl)-3-(5-methylpyrimidin-2-yl)butane-2-sulfonamide or (2S,3R)-N-(4-(2,6-dimethoxyphenyl)-5-((R)-tetrahydrothiophen-2-yl)-4H-1,2,4-triazol-3-yl)-3-(5-methylpyrimidin-2-yl)butane-2-sulfonamide [Example 224.0]
